Data set [1] deals with MDA-MB436 triple-negative breast. The data set can be described thus: Sulphorodamine B test at single concentration, MDA-MB436. Format: cell-based. The following applies: Homo sapiens, MDA-MB-436; 500 nM, 72 h. The procedure: (§1) The antiproliferative activity of novel Hsp90 inhibitors was also evaluated on various cancerous cell lines by means of the sulphorodamine B test (i.e., NCI-H460 non-small cell lung carcinoma, A431 epidermoid, A2780 ovarian, MDA-MB436 triple-negative breast, U87MG glioblastoma, A498 renal, HCT116 colon, MeWo melanoma, MiaPaCa2 pancreas, HeLa cervix uteri, NB4 promyelocytic leukemia). NCI-H460, A431, MDA-MB436, A2780, A498, HeLa, NB4 tumour cells were grown in RPMI 1640 containing 10% fetal bovine serum (i.e., FBS from GIBCO), L-glutamine, and 50 μg/ml gentamycin sulfate.
(§2) All cell lines were maintained in a 37° C. incubator with saturated humidity and an atmosphere containing 95% air and 5% CO2, and were sub-cultured every 2-3 days. Tumour cells were seeded in 96-well tissue culture plates at approximately 10% confluence and were allowed to attach and recover for 24 h.
(§3) Varying concentrations of the drugs were then added to each well to calculate their IC50 value (the concentration which inhibits the 50% of cell survival). The plates were incubated at 37° C. for 72 h. At the end of the treatment, the plates were washed by remotion of the supernatant and addition of PBS 3 times. 200 μl PBS and 50 μl of cold 80% trichloroacetic acid (TCA) were added. The plates were incubated on ice for at least 1 h. TCA was removed, the plates were washed 3 times by immersion in distilled-water and dried on paper and at 40° C. for […]. Then 200 μl of 0.4% sulphorodamine B in 1% acetic acid were added. The plates were incubated at room temperature for 30 min. Sulphorodamine B was removed, the plates were washed by immersion in 1% acetic acid for 3 times, then they were dried on paper and at 40° C. for 5 min. Then, 200 μl Tris 10 mM were added, the plates were kept under stirring for 20 min. The cell survival was determined as optical density by a Multiskan […] at 540 nm. The amount of cells killed was calculated as the percentage decrease in sulphorodamine B binding compared with control cultures.
(§4) The other cell lines were screened against one single concentration of the various inhibitors (i.e., 500 nM), all experiments being made in octuplicate, following the protocol described at example 35. Since NB4 cell line was grown in suspension, a further step of centrifugation (i.e., 1600 g for 10 min) was added after the 72 hour incubation period.

Another data set concerns HeLa cervix uteri. Put plainly: Sulphorodamine B test at single concentration, HeLa. The following applies: Homo sapiens, 500 nM, 72 h. Format: cell-based. As for the experimental part:
as §1, §2, §3, §4

Another data set concerns U87MG glioblastoma. Put plainly: Sulphorodamine B test at single concentration, U87MG. In kind it is cell-based. The following applies: Homo sapiens, U-87 MG; 500 nM, 72 h. As for the experimental part:
as §1
(§5) MeWo and U87-MG cells were cultured in Eagle's Minimum Essential Medium (i.e., EMEM) containing 10% FBS, L-glutamine, 1 mM sodium pyruvate, 0.1 mM non-essential amino acids, 1.5 g/l sodium bicarbonate, and 50 μg/ml gentamycin sulphate.
as §2, §3, §4

For the next data set, the system named is A498 renal. The data set can be described thus: Sulphorodamine B test at single concentration, A498. Format: cell-based. The following applies: Homo sapiens, 500 nM, 72 h. The procedure:
as §1, §2, §3, §4

A further data set deals with HCT116 colon. The data set can be described thus: Sulphorodamine B test at single concentration, HCT116. The following applies: Homo sapiens, HCT-116; 500 nM, 72 h. Format: cell-based. As for the experimental part: as §1
HCT116 cells were cultured in McCoy's medium containing 10% FBS, L-glutamine, and 50 μg/ml gentamycin sulfate.
as §2, §3, §4

The target of the next data set is T1, Hsp90 (Homo sapiens, UniProt P07900).
T1 construct: purchased Stressgen SPP-776
Put plainly: Fluorescence Polarization (FP) binding, GM-BODIPY displacement from Hsp90. The following applies: GM-BODIPY tracer, 4° C. for 4 hours. The procedure:
GM-BODIPY (PerkinElmer, CUSN60342000MG) was previously dissolved in DMSO to obtain 10 mM stock solutions and kept at −20° C. until use.
Hsp90 (Stressgen, SPP-776), was previously dissolved in assay buffer (HFB) to form 2.2 μM stock solutions and kept at −80° C. until use.
The compounds were previously dissolved in DMSO to obtain stock solutions and kept at −20° C. The day of experiment, the compounds were prepared by serial dilutions in assay buffer (HFB) containing 20 mM HEPES (K) pH 7.3, 50 mM KCl, 5 mM MgCl2, 20 mM Na2MoO4 and 0.01% NP40. Before each use, 0.1 mg/ml Bovine Gamma globulin and 2 mM DTT were freshly added.
Fluorescence Polarization (FP) was performed in Opti-Plate™-96F well plates (Perkin Elmer, Zaventem, Belgium) using a plate reader (Wallac Envision 2101 multilabel reader, Perkin Elmer, Zaventem, Belgium). To evaluate the binding affinity of the molecules, 50 μl of the GM-BODIPY solution (100 nM) were added to 125 nM of Hsp90 in the presence of 5 μl of the test compounds at increasing concentrations. The plate was mixed on a shaker at 4° C. for 4 hours, and the FP values in mP (millipolarization units) were recorded. The IC50 values were calculated as the inhibitor concentration where 50% of the tracer is displaced; each data point is the result of the average of triplicate wells, and was determined from a plot using nonlinear least-squares analysis. Curve fitting was performed using
Prism GraphPad software program (GraphPad software, Inc., San Diego, Calif.).

Another data set concerns MiaPaCa2 pancreas. The data set can be described thus: Sulphorodamine B test at single concentration, MiaPaCa2. Format: cell-based. The following applies: Homo sapiens, MIA PaCa-2; 500 nM, 72 h. As for the experimental part:
as §1
MiaPaCa2 cells were cultured in DMEM medium containing 10% FBS, L-glutamine, and 50 μg/ml gentamycin sulfate.
as §2, §3, §4

A further data set deals with A2780 ovarian. The data set can be described thus: Sulphorodamine B test at single concentration, A2780. Format: cell-based. The following applies: Homo sapiens, 500 nM, 72 h. As for the experimental part:
as §1, §2, §3, §4

In data set [2] the test system is NCI-H460 non-small cell lung carcinoma. The data set can be described thus: Cytotoxicity assay, sulphorodamine B test, NCI-H460. In kind it is cell-based. The following applies: for IC50: Homo sapiens, NCI-H460, 72 h, sulphorodamine B. As for the experimental part: as §1, §2, §3
The next data set relates to MeWo melanoma. The data set can be described thus: Sulphorodamine B test at single concentration, MeWo. In kind it is cell-based. The following applies: Homo sapiens, 500 nM, 72 h. As for the experimental part:
as §1, §5, §2, §3, §4

For data set [3], the system named is NB4 promyelocytic leukemia. Put plainly: Sulphorodamine B test at single concentration, NB4. Format: cell-based. The following applies: 500 nM, 72 h, suspension cells. The procedure: as §1, §2, §3, §4
The test system of a further data set is A431 epidermoid. Put plainly: Sulphorodamine B test at single concentration, A431. In kind it is cell-based. The following applies: Homo sapiens, A-431; 500 nM, 72 h. As for the experimental part:
as §1, §2, §3, §4

This note sets out measurements from patent publication US9302998B2, “Aryl triazole compounds with antitumoural activity” (SIGMA-TAU RESEARCH SWITZERLAND S.A., priority 2010, dated 2016).

As to `CCNC(=O)c1nnn(-c2cc(C(C)C)c(O)cc2O)c1-c1ccc(CN(CC)CCO)cc1` [Example 7, 1-(2,4-dihydroxy-5-isopropyl-phenyl)-5-(4-{[ethyl-(2-hydroxy-ethyl)-amino]-methyl}-phenyl)-1H-[1,2,3]triazole-4-carboxylic acid ethylamide], the inhibition at 0.5 µM (in [1]; with HeLa cervix uteri; in the data set with U87MG glioblastoma; in the data set on A498 renal; in the data set with HCT116 colon; in the data set on MiaPaCa2 pancreas) was at least 50% in each case. In addition, the inhibition at 0.5 µM (in the data set on A2780 ovarian; in the data set with MeWo melanoma; in [3]; with A431 epidermoid) was at least 50% in each case. Further, the IC50 on Hsp90 is below 50 nM; in data set [2], 50 to 100 nM.
Regarding `CCCCCCNC(=O)c1nnn(-c2cc(C(C)C)c(O)cc2O)c1-c1ccc(CN2CCOCC2)cc1` [Example 27, 1-(2,4-dihydroxy-5-isopropyl-phenyl)-5-(4-morpholin-4-ylmethyl-phenyl)-1H-[1,2,3]triazole-4-carboxylic acid hexylamide], the inhibition at 0.5 µM (in [1]; in the data set on HeLa cervix uteri; with U87MG glioblastoma; in the data set on A498 renal; in the data set with HCT116 colon; in the data set with MiaPaCa2 pancreas) was at least 50% each time. For the same compound, the inhibition at 0.5 µM (with A2780 ovarian; with MeWo melanoma; in [3]; with A431 epidermoid) was at least 50% each time. The half-maximal inhibitory concentration (IC50) (on Hsp90; in data set [2]) was below 50 nM throughout.
Turning to `CCNC(=O)c1nnn(-c2cc(C(C)C)c(O)cc2O)c1-c1ccc(CN2CCCC(O)C2)cc1` (racemic) [Example 6, (R,S)-1-(2,4-dihydroxy-5-isopropyl-phenyl)-5-[4-(3-hydroxy-piperidin-1-ylmethyl)-phenyl]-1H-[1,2,3]triazole-4-carboxylic acid ethylamide], the inhibition at 0.5 µM (in data set [1]; with HeLa cervix uteri; in the data set on U87MG glioblastoma; in the data set with A498 renal; in the data set with HCT116 colon; with MiaPaCa2 pancreas) was at least 50% in each case. The inhibition at 0.5 µM (with A2780 ovarian; in the data set with MeWo melanoma; in [3]; in the data set on A431 epidermoid) was at least 50% in each case. For the same compound, the results for the IC50 (on Hsp90; in data set [2]) were below 50 nM and 50 to 100 nM, respectively.
For `CCOC(=O)c1nnn(-c2cc(Cl)c(O)cc2O)c1-c1ccc(F)cc1` [Example 32, 1-(5-chloro-2,4-dihydroxy-phenyl)-5-(4-fluoro-phenyl)-1H-[1,2,3]triazole-4-carboxylic acid ethyl ester, reference compound], the inhibition at 0.5 µM (in data set [1]; in the data set with HeLa cervix uteri; in the data set with U87MG glioblastoma; with A498 renal; in the data set with HCT116 colon; in the data set on MiaPaCa2 pancreas) was below 30% in each case. The inhibition at 0.5 µM with A2780 ovarian is below 30%; in the data set with MeWo melanoma, below 30%; in data set [3], 30 to 50%; with A431 epidermoid it was below 30%. In addition, the half-maximal inhibitory concentration (IC50) at Hsp90 is above 500 nM; in data set [2] it was above 1000 nM. Also, the “cytotoxic activity against NCI-H460 NSCLC (in words)” value in [2] is “totally deprived of any interesting biological activity”.
Consider `CCNC(=O)c1nnn(-c2cc(C(C)C)c(O)cc2O)c1-c1ccc(CN2CCCCC2)cc1` [Example 9, 1-(2,4-dihydroxy-5-isopropyl-phenyl)-5-(4-piperidin-1-ylmethyl-phenyl)-1H-[1,2,3]triazole-4-carboxylic acid ethylamide], for which the inhibition at 0.5 µM (in data set [1]; in the data set on HeLa cervix uteri; in the data set with U87MG glioblastoma; in the data set on A498 renal; in the data set with HCT116 colon; with MiaPaCa2 pancreas) was at least 50% in each case. For the same compound, the inhibition at 0.5 µM (in the data set on A2780 ovarian; in the data set on MeWo melanoma; in data set [3]; with A431 epidermoid) was at least 50% in each case. Besides, the IC50 (on Hsp90; in [2]) was below 50 nM each time.
Consider `CC(C)c1cc(-n2nnc(C(=O)NC3CCCC3)c2-c2ccc(CN3CCOCC3)cc2)c(O)cc1O` [Example 28, 1-(2,4-dihydroxy-5-isopropyl-phenyl)-5-(4-morpholin-4-ylmethyl-phenyl)-1H-[1,2,3]triazole-4-carboxylic acid cyclopentylamide], for which the inhibition at 0.5 µM (in [1]; in the data set with HeLa cervix uteri; with U87MG glioblastoma; in the data set on A498 renal; in the data set with HCT116 colon; in the data set with MiaPaCa2 pancreas) was at least 50% throughout. Further, the inhibition at 0.5 µM (with A2780 ovarian; in the data set on MeWo melanoma; in data set [3]; in the data set on A431 epidermoid) was at least 50% in each case. The IC50 (on Hsp90; in data set [2]) was below 50 nM throughout.
As to `CCNC(=O)c1nnn(-c2cc(C(C)C)c(O)cc2O)c1-c1ccc(CN2CCOCC2)cc1` [Example 5, 1-(2,4-dihydroxy-5-isopropyl-phenyl)-5-(4-morpholin-4-ylmethyl-phenyl)-1H-[1,2,3]triazole-4-carboxylic ethyl amide], the inhibition at 0.5 µM (in data set [1]; with HeLa cervix uteri; with U87MG glioblastoma; with A498 renal; in the data set with HCT116 colon; in the data set with MiaPaCa2 pancreas) was at least 50% throughout. In addition, the inhibition at 0.5 µM (in the data set on A2780 ovarian; in the data set on MeWo melanoma; in [3]; with A431 epidermoid) was at least 50% in each case. Also, the IC50 (on Hsp90; in data set [2]) was below 50 nM each time.
